Laboratory results: patent US20260365671A1, “HETEROCYCLIC COMPOUND” (Takeda Pharmaceutical Company Limited, priority 2022, published 2026)

Tests used:
NLRP3 inflammasome = biological target: T1, NLRP3 inflammasome (Homo sapiens, UniProt Q96P20); test: IL-1β TR-FRET assay (THP-1 cells differentiated to macrophages with IFN-γ, LPS primed, ATP activated; HTRF); type: cell-based; details: THP-1 macrophages, 50 ng/mL LPS priming, compound 30 min, 20 mM ATP 2 hours
T1 construct: IL-1beta HTRF
Procedure, shortened: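 IL-1β release was read by HTRF after 16–24 h antibody incubation at room temperature, using supernatants from THP-1-derived macrophages (IFN-γ 25 ng/mL, LPS 50 ng/mL priming) given compound 30 min and then 20 mM ATP for 2 h. % inhibition versus concentration was fitted logistically for IC50.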

NF-κB pathway = test: TNF-α assay (THP-1 cells differentiated to macrophages with IFN-γ, NF-κB pathway activated with LPS; ELISA); type: cell-based, Human; details: Homo sapiens, THP-1, THP-1 macrophages, compound 30 min, 50 ng/mL LPS 3 hours
Procedure, shortened: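 TNF-α release measured by ELISA after 3 h stimulation with 50 ng/mL LPS, following 30 min compound pretreatment (37 °C, no FBS). Cells were THP-1 macrophages primed with IFN-γ 25 ng/mL for 24 h. IC50 derived by logistic curve fit.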

T1 sequence (Q96P20 whole entry): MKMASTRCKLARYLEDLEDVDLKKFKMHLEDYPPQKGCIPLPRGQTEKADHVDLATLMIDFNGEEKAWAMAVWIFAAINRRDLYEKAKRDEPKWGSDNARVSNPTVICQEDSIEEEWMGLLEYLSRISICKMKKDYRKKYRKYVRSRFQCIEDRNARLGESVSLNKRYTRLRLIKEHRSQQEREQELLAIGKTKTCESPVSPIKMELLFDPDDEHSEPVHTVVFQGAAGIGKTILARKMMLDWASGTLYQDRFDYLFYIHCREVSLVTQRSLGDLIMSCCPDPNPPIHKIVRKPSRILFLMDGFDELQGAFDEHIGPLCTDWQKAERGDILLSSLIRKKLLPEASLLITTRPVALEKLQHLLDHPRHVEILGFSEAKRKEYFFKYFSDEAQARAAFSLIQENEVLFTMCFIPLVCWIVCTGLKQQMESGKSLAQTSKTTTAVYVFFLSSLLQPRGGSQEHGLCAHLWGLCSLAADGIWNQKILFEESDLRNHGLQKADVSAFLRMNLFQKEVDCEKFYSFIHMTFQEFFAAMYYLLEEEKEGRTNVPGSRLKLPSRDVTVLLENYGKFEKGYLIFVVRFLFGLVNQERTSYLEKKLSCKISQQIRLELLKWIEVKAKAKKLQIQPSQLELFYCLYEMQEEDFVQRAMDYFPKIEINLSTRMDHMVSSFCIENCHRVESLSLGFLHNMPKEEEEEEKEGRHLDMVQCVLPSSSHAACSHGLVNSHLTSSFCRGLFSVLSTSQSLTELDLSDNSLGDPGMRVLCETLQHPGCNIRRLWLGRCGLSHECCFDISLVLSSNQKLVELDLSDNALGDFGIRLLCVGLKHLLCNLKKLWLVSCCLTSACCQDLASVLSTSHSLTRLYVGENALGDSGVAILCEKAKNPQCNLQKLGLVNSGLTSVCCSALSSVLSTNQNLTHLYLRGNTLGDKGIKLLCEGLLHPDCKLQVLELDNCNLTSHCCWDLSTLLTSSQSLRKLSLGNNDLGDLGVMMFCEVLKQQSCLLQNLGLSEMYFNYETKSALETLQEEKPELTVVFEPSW

Cc1cc(C)c(-n2cc3sc(NC4(C(F)F)CC4)nc3n2)c(O)c1 [Example 147, 2-(5-{[1-(difluoromethyl)cyclopropyl]amino}-2H-pyrazolo[3,4-d][1,3]thiazol-2-yl)-3,5-dimethylphenol]
IC50 (NLRP3 inflammasome): 0.84 µM | IC50 (NF-κB pathway): > 10 µM

Cc1cc(O)c(-n2cc3sc(NCC(C)(C)O)nc3n2)c(C2CC2(F)F)c1 (centres unmarked) [Example 148]
IC50 (NLRP3 inflammasome): 0.13 µM | IC50 (NF-κB pathway): > 30 µM

Cc1cc(O)c(-n2cc3sc(NC45CCC(O)(CC4)C5)nc3n2)c(C2CC2(F)F)c1 (centres unmarked) [Example 149, 4-({2-[2-(2,2-difluorocyclopropyl)-6-hydroxy-4-methylphenyl]-2H-pyrazolo[3,4-d][1,3]thiazol-5-yl}amino)bicyclo[2.2.1]heptan-1-ol]
IC50 (NLRP3 inflammasome): 0.066 µM | IC50 (NF-κB pathway): > 30 µM

CCc1cc(C)cc(O)c1-n1cc2sc(NC34CCC(O)(CC3)C4)nc2n1 [Example 150, 4-{[2-(2-ethyl-6-hydroxy-4-methylphenyl)-2H-pyrazolo[3,4-d][1,3]thiazol-5-yl]amino}bicyclo[2.2.1]heptan-1-ol]
IC50 (NLRP3 inflammasome): 0.12 µM | IC50 (NF-κB pathway): > 10 µM

Cc1cc(C)c(-n2cc3sc(NC4C5CC6CC4CC(O)(C6)C5)nc3n2)c(O)c1 (centres unmarked) [Example 151, 4-{[2-(2-hydroxy-4,6-dimethylphenyl)-2H-pyrazolo[3,4-d][1,3]thiazol-5-yl]amino} adamantan-1-ol]
IC50 (NLRP3 inflammasome): 6.8 µM | IC50 (NF-κB pathway): > 10 µM

Cc1cc(C)c(-n2cc3sc(NCC(F)(F)CO)nc3n2)c(O)c1 [Example 152, 2-{5-[(2,2-difluoro-3-hydroxypropyl)amino]-2H-pyrazolo[3,4-d][1,3]thiazol-2-yl}-3,5-dimethylphenol]
IC50 (NLRP3 inflammasome): 0.28 µM | IC50 (NF-κB pathway): > 30 µM

Cc1cc(C)c(-n2cc3sc(N[C@@H]4CCN(C(=O)OC5CC5)C4)nc3n2)c(O)c1 [Example 153, cyclopropyl (3R)-3-{[2-(2-hydroxy-4,6-dimethylphenyl)-2H-pyrazolo[3,4-d][1,3]thiazol-5-yl]amino}pyrrolidine-1-carboxylate]
IC50 (NLRP3 inflammasome): 0.27 µM | IC50 (NF-κB pathway): > 30 µM

Cc1cc(C)c(-n2cc3sc(N[C@H]4CCN(C(=O)OC5CC5)C4)nc3n2)c(O)c1 [Example 154, cyclopropyl (3S)-3-{[2-(2-hydroxy-4,6-dimethylphenyl)-2H-pyrazolo[3,4-d][1,3]thiazol-5-yl]amino}pyrrolidine-1-carboxylate]
IC50 (NLRP3 inflammasome): 1.9 µM | IC50 (NF-κB pathway): > 30 µM

COC(=O)N1CC[C@@H](Nc2nc3nn(-c4c(C)cc(C)cc4O)cc3s2)C1 [Example 155, methyl (3R)-3-{[2-(2-hydroxy-4,6-dimethylphenyl)-2H-pyrazolo[3,4-d][1,3]thiazol-5-yl]amino}pyrrolidine-1-carboxylate]
IC50 (NLRP3 inflammasome): 0.34 µM | IC50 (NF-κB pathway): > 30 µM

COC(=O)N1CC[C@H](Nc2nc3nn(-c4c(C)cc(C)cc4O)cc3s2)C1 [Example 156, methyl (3S)-3-{[2-(2-hydroxy-4,6-dimethylphenyl)-2H-pyrazolo[3,4-d][1,3]thiazol-5-yl]amino}pyrrolidine-1-carboxylate]
IC50 (NLRP3 inflammasome): 2 µM | IC50 (NF-κB pathway): > 10 µM

Cc1cc(C)c(-n2cc3sc(N[C@@H]4CCOC4)nc3n2)c(O)c1 [Example 157, 3,5-dimethyl-2-(5-{[(3R)-oxolan-3-yl]amino}-2H-pyrazolo[3,4-d][1,3]thiazol-2-yl)phenol]
IC50 (NLRP3 inflammasome): 0.33 µM | IC50 (NF-κB pathway): > 30 µM

Cc1cc(C)c(-n2cc3sc(N[C@H]4CCOC4)nc3n2)c(O)c1 [Example 158, 3,5-dimethyl-2-(5-{[(3S)-oxolan-3-yl]amino}-2H-pyrazolo[3,4-d][1,3]thiazol-2-yl)phenol]
IC50 (NLRP3 inflammasome): 0.66 µM | IC50 (NF-κB pathway): > 30 µM

Cc1cc(C)c(-n2cc3sc(NC4COCC4O)nc3n2)c(O)c1 (centres unmarked) [Example 159, 4-{[2-(2-hydroxy-4,6-dimethylphenyl)-2H-pyrazolo[3,4-d][1,3]thiazol-5-yl]amino}oxolan-3-ol]
IC50 (NLRP3 inflammasome): 0.26 µM | IC50 (NF-κB pathway): > 30 µM

Cc1cc(C)c(-n2cc3sc(N[C@H]4CN(C)CC4(F)F)nc3n2)c(O)c1 [Example 160, 2-(5-{[(3S)-4,4-difluoro-1-methylpyrrolidin-3-yl]amino}-2H-pyrazolo[3,4-d][1,3]thiazol-2-yl)-3,5-dimethylphenol]
IC50 (NLRP3 inflammasome): 1.3 µM | IC50 (NF-κB pathway): > 30 µM

Cc1cc(C)c(-n2cc3sc(NCC4(O)COC4)nc3n2)c(O)c1 [Example 161, 3-({[2-(2-hydroxy-4,6-dimethylphenyl)-2H-pyrazolo [3,4-d][1,3]thiazol-5-yl]amino}methyl)oxetan-3-ol]
IC50 (NLRP3 inflammasome): 16 µM | IC50 (NF-κB pathway): > 30 µM

Cc1cc(C)c(-n2cc3sc(N[C@@H]4CCCC[C@H]4O)nc3n2)c(O)c1 [Example 162, 2-(5-{[(1R,2R)-2-hydroxycyclohexyl]amino}-2H-pyrazolo[3,4-d][1,3]thiazol-2-yl)-3,5-dimethyl-phenol]
IC50 (NLRP3 inflammasome): 0.45 µM | IC50 (NF-κB pathway): > 30 µM

Cc1cc(C)c(-n2cc3sc(NCC(O)C(F)(F)F)nc3n2)c(O)c1 (centres unmarked) [Example 163, 3,5-dimethyl-2-{5-[(3,3,3-trifluoro-2-hydroxypropyl)amino]-2H-pyrazolo[3,4-d][1,3]thiazol-2-yl}phenol]
IC50 (NLRP3 inflammasome): 0.67 µM | IC50 (NF-κB pathway): > 30 µM

Cc1cc(C)c(-n2cc3sc(NCC(O)c4ccccn4)nc3n2)c(O)c1 (centres unmarked) [Example 164, 2-(5-{[2-hydroxy-2-(pyridin-2-yl)ethyl]amino}-2H-pyrazolo[3,4-d][1,3]thiazol-2-yl)-3,5-dimethylphenol]
IC50 (NLRP3 inflammasome): 1 µM | IC50 (NF-κB pathway): > 30 µM

Cc1cc(C)c(-n2cc3sc(N[C@@H]4COCC[C@H]4O)nc3n2)c(O)c1 [Example 165, 1,5-anhydro-2,4-dideoxy-2-{[2-(2-hydroxy-4,6-dimethylphenyl)-2H-pyrazolo[3,4-d][1,3]thiazol-5-yl]amino}-D-threo-pentitol]
IC50 (NLRP3 inflammasome): 1.8 µM | IC50 (NF-κB pathway): > 30 µM

COCC(O)CNc1nc2nn(-c3c(C)cc(C)cc3O)cc2s1 (centres unmarked) [Example 166, 2-{5-[(2-hydroxy-3-methoxypropyl)amino]-2H-pyrazolo[3,4-d][1,3]thiazol-2-yl}-3,5-dimethylphenol]
IC50 (NLRP3 inflammasome): 0.76 µM | IC50 (NF-κB pathway): > 30 µM

Cc1cc(C)c(-n2cc3sc(N[C@@H]4CCOC[C@H]4O)nc3n2)c(O)c1 [Example 167, 1,5-anhydro-2,3-dideoxy-3-{[2-(2-hydroxy-4,6-dimethylphenyl)-2H-pyrazolo[3,4-d][1,3]thiazol-5-yl]amino}-D-threo-pentitol]
IC50 (NLRP3 inflammasome): 0.35 µM | IC50 (NF-κB pathway): > 30 µM

Cc1cc(C)c(-n2cc3sc(NC(CO)CO)nc3n2)c(O)c1 [Example 168, 2-{[2-(2-hydroxy-4,6-dimethylphenyl)-2H-pyrazolo[3,4-d][1,3]thiazol-yl]amino}propane-1,3-diol]
IC50 (NLRP3 inflammasome): 0.37 µM | IC50 (NF-κB pathway): > 30 µM

Cc1cc(C)c(-n2cc3sc(NC45CC(O)(C4)C5)nc3n2)c(O)c1 [Example 169, 3-{[2-(2-hydroxy-4,6-dimethylphenyl)-2H-pyrazolo[3,4-d][1,3]thiazol-5-yl]amino} bicyclo[1.1.1]pentan-1-ol]
IC50 (NLRP3 inflammasome): 0.43 µM | IC50 (NF-κB pathway): > 30 µM

Cc1cc(C)c(-n2cc3sc(NC4(CF)COC4)nc3n2)c(O)c1 [Example 170, 2-(5-{[3-(fluoromethyl)oxetan-3-yl]amino}-2H-pyrazolo[3,4-d][1,3]thiazol-2-yl)-3,5-dimethylphenol]
IC50 (NLRP3 inflammasome): 2 µM | IC50 (NF-κB pathway): > 30 µM

Cc1cc(C)c(-n2cc3sc(NCC(O)C(F)F)nc3n2)c(O)c1 (centres unmarked) [Example 171, 2-{5-[(3,3-difluoro-2-hydroxypropyl)amino]-2H-pyrazolo[3,4-d][1,3]thiazol-2-yl}-3,5-dimethylphenol]
IC50 (NLRP3 inflammasome): 0.16 µM | IC50 (NF-κB pathway): > 10 µM

Cc1cc(C)c(-n2cc3sc(NC[C@@H](C)OC(F)F)nc3n2)c(O)c1 [Example 172, 2-(5-{[(2R)-2-(difluoromethoxy)propyl]amino}-2H-pyrazolo[3,4-d][1,3]thiazol-2-yl)-3,5-dimethylphenol]
IC50 (NLRP3 inflammasome): 0.75 µM | IC50 (NF-κB pathway): > 10 µM

Cc1cc(C)c(-n2cc3sc(NC45CC(OC(F)F)(C4)C5)nc3n2)c(O)c1 [Example 173, 2-(5-{[3-(difluoromethoxy)bicyclo[1.1.1]pentan-1-yl]amino}-2H-pyrazolo[3,4-d][1,3]thiazol-2-yl)-3,5-dimethylphenol]
IC50 (NLRP3 inflammasome): 3.5 µM | IC50 (NF-κB pathway): > 10 µM

COc1cc(C)c(-n2cc3sc(N[C@@H]4C[C@@H](F)CN(C5CC5)C4)nc3n2)c(O)c1 [Example 174, 2-(5-{[(3R,5R)-1-cyclopropyl-5-fluoropiperidin-3-yl]amino}-2H-pyrazolo[3,4-d][1,3]thiazol-2-yl)-5-methoxy-3-methylphenol]
IC50 (NLRP3 inflammasome): 0.11 µM | IC50 (NF-κB pathway): > 30 µM

Cc1cc(O)c(-n2cc3sc(N[C@@H]4C[C@@H](F)CN(C)C4)nc3n2)c(CC(F)F)c1 [Example 175, 3-(2,2-difluoroethyl)-2-(5-{[(3R,5R)-5-fluoro-1-methylpiperidin-3-yl]amino}-2H-pyrazolo[3,4-d][1,3]thiazol-2-yl)-5-methylphenol]
IC50 (NLRP3 inflammasome): 0.0037 µM | IC50 (NF-κB pathway): > 30 µM

Cc1cc(O)c(-n2cc3sc(N[C@@H]4C[C@@H](F)CN(C)C4)nc3n2)c(COC(F)F)c1 [Example 176, 3-[(difluoromethoxy)methyl]-2-(5-{[(3R,5R)-5-fluoro-1-methylpiperidin-3-yl]amino}-2H-pyrazolo[3,4-d][1,3]thiazol-2-yl)-5-methylphenol]
IC50 (NLRP3 inflammasome): 0.022 µM | IC50 (NF-κB pathway): > 30 µM

COCc1cc(C)cc(O)c1-n1cc2sc(N[C@@H]3C[C@@H](F)CN(C)C3)nc2n1 [Example 177, 2-(5-{[(3R,5R)-5-fluoro-1-methylpiperidin-3-yl]amino}-2H-pyrazolo[3,4-d][1,3]thiazol-2-yl)-3-(methoxymethyl)-5-methylphenol]
IC50 (NLRP3 inflammasome): 0.04 µM | IC50 (NF-κB pathway): > 30 µM
